In patent publication US20100120730A1, “6-BENZYL-2,3,4,7-TETRAHYDRO-INDOLO [2,3-C] QUINOLINE COMPOUNDS USEFUL AS PDE5 INHIBITORS” (NYCOMED GmbH, priority 2007, published 2010):

How the values were obtained:
human PDE5 = molecular target: T1, human PDE5 (Homo sapiens, UniProt O76074); assay: Inhibition of PDE5 activity (modified SPA test, human platelet lysate); format: biochemical; details: PDE5-containing human platelet lysate, 0.5 μM cGMP substrate, 37° C.
T1 construct: from tissue; host or cells: human platelets from fresh donor blood (10,000 g supernatant of sonified platelets)
In short: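 Human platelet lysate (10,000 g supernatant) as PDE5 source; SPA with 0.5 μM cGMP plus [3H]cGMP tracer, 20 mM Tris pH 7.4, 5 mM Mg2+, 1 μM motapizone and 10 nM BAY-60-7550; 5 min preincubation at 37° C., 15 min reaction, stopped with SPA beads containing IBMX. IC50 by non-linear regression.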

IC50 (human PDE5) | melting point | SMILES
1 nM | 118 to 120 °C | COc1ccc(Cc2nc3c(c4c2[nH]c2ccccc24)[C@@H](O)CC(C)(C)C3)cc1 [Example 81, (S)-6-(4-Methoxy-benzyl)-3,3-dimethyl-2,3,4,7-tetrahydro-1H-indolo[2,3-c]quinolin-1-ol]
31.6 nM | 164 to 166 °C | COc1ccc(Cc2nc3c(c4c2[nH]c2ccccc24)[C@H](O)CC(C)(C)C3)cc1F [Example 82, (R)-6-(3-Fluoro-4-methoxy-benzyl)-3,3-dimethyl-2,3,4,7-tetrahydro-1H-indolo[2,3-c]quinolin-1-ol]
25.1 nM | 124 to 127 °C | COc1ccc(Cc2nc3c(c4c2[nH]c2ccccc24)[C@H](O)CCC3)cc1F [Example 83, (R)-6-(3-Fluoro-4-methoxy-benzyl)-2,3,4,7-tetrahydro-1H-indolo[2,3-c]quinolin-1-ol]
398 nM | 129 to 131 °C | CC1(C)Cc2nc(Cc3cc(F)cc(F)c3)c3[nH]c4ccccc4c3c2[C@H](O)C1 [Example 84, (R)-6-(3,5-Difluoro-benzyl)-3,3-dimethyl-2,3,4,7-tetrahydro-1H-indolo[2,3-c]quinolin-1-ol]
2 nM | 125 to 127 °C | COc1ccc(Cc2nc3c(c4c2[nH]c2ccccc24)[C@@H](O)CCC3)cc1F [Example 85, (S)-6-(3-Fluoro-4-methoxy-benzyl)-2,3,4,7-tetrahydro-1H-indolo[2,3-c]quinolin-1-ol]
3.16 nM | 130 to 131 °C | CC1(C)Cc2nc(Cc3cc(F)cc(F)c3)c3[nH]c4ccccc4c3c2[C@@H](O)C1 [Example 86, (S)-6-(3,5-Difluoro-benzyl)-3,3-dimethyl-2,3,4,7-tetrahydro-1H-indolo[2,3-c]quinolin-1-ol]
3.89 nM | 123 to 126 °C | CC1(C)Cc2nc(Cc3cccc(F)c3)c3[nH]c4ccccc4c3c2[C@@H](O)C1 [Example 93, (S)-6-(3-Fluoro-benzyl)-3,3-dimethyl-2,3,4,7-tetrahydro-1H-indolo[2,3-c]quinolin-1-ol]
15.1 nM | 124 to 127 °C | CC1(C)Cc2nc(Cc3cccc(Cl)c3)c3[nH]c4ccccc4c3c2[C@@H](O)C1 [Example 94, (S)-6-(3-Chloro-benzyl)-3,3-dimethyl-2,3,4,7-tetrahydro-1H-indolo[2,3-c]quinolin-1-ol]
